Assay results: paper PMC9881157 (2023)

Columns and labels:
Assay in all cases: RNA-DRaCALA titration
[1] = system: C16 (RNA, riboswitch) CAGAAGGGUACCUAGGGUUCCGUCCAUUUGAUUCAAGGGAGUCUGGACCAAGCGGUAUCGGCACCGGGAUAUGGUGUACACCGUGGGGAUAAAAGCCUCCAGCGGCAGGUUCUGAUGCAAAAAAAGCCACCGCCACCGCCACCGCCACCGCCACCGCCACCGCC; conditions: 10 mM MgCl2; 20 mM Tris-HCl pH 7.5, 37 °C; 10 nM 32P-ligand
[2] = system: C21 (RNA, riboswitch) UAAGAGGCUAACUAGGGUUCCGAUGGUUUCAUGCUGGUCCAAGCGUUAGCAAACAUACUGAGGAAGGUAUGUUACACCGUUAGUACAAAAGGCUCGGCGGGAGGUCUUAUCCUUAAAAAAGCCACCGCCACCGCCACCGCCACCGCCACCGCCACCGCC; conditions: 10 mM MgCl2; 20 mM Tris-HCl pH 7.5, 37 °C; 10 nM 32P-ligand
[3] = system: To-B (T. oceani ilvE, biotinylated) (RNA, riboswitch) AGGAAGUGUACCUUAGGGUUCCGGCCAUAAGGCGUCAGCGACCGAGCGGUACAAUCCGGGGAAACCCGGAACACCGUGAGCAUAAAAGGCUCCAGCGGCAAGUUCCUAAAAGAC; conditions: 10 mM MgCl2; 20 mM Tris-HCl pH 7.5, 37 °C; 1 nM 32P-ppGpp

SMILES | Kd [1] | Kd [2] | Kd [3]
Nc1nc2c(ncn2[C@@H]2O[C@H](COP(=O)(O)OP(=O)(O)O)[C@@H](OP(=O)(O)OP(=O)(O)O)[C@H]2O)c(=O)[nH]1 | 33 ± 3.7 nM | 654 ± 121 nM | 22.1 ± 1.6 nM
Nc1nc2c(ncn2[C@@H]2O[C@H](COP(=O)(O)OP(=O)(O)OP(=O)(O)O)[C@@H](OP(=O)(O)OP(=O)(O)O)[C@H]2O)c(=O)[nH]1 | 137 ± 17 nM | – | –
